# Test results reported in US20060135587A1, “Method and compounds for promoting healing and reducing inflammation” (priority 2002, published 2006).
# How the values were obtained:
# [1] = tested on: neurogenic dystrophy of the myocardium; assay: Myocardial infarction model (electrostimulation of aortic arch), creatine phosphate in rat myocardium; assay type: in vivo, rats
# From the text: The effect of Compound 2 on myocardial tissue in an experimental model of myocardial infarction was examined. In this model system neurogenic dystrophy of the myocardium was induced in rats or rabbits by electrical stimulation of the reflexogenic zone of the aortic arch by implanted electrodes for a period of three hours. […] These changes are accompanied by changes in biochemical indicators such as creatine phosphate, cAMP, and calcium ion concentrations, and changes in the activity of redox enzymes such as succinate dehydrogenase, lactate dehydrogenase, and glucose-6-phosphate dehydrogenase. At a later stage organic lesions of the myocardium such as necrotic and fibrosclerotic foci can be observed.
# The effect of Compound 2 given intraperitoneally or orally on these indicators was examined in rats and rabbits following electrostimulation as described above. The effects on levels of creatine phosphate in rat myocardial are shown in Table 19, and the effects on adenosine triphosphatase (ATPase), succinate dehydrogenase and glucose-6-phosphate dehydrogenase rabbit myocardium are shown in Table 20. The effects on cAMP and Ca^++ levels in rabbit myocardial tissue are shown in FIG. 5, and effects on creatine kinase in rabbit myocardium and blood and the levels of creatine phosphate in myocardium are shown in FIG. 6.
# guinea pigs = assay: Acute toxicity (LD50) in guinea pigs; assay type: in vivo; conditions: oral administration
# From the text: It is contemplated that in clinical use, treatment using oral tablets will take two to three weeks, with each patient receiving three tablets containing 0.6 g active compound per day.
# myocardial infarction = assay: Clinical comparison of Compound 2 and Riboxin in subacute myocardial infarction (Example 25); assay type: in vivo, human
# Experimental: A total of 94 patients were examined; of these:
# Conventional therapy as for example 24 was given to 30 patients. Each patient continued to receive the treatment which s/he had been given prior to commencement of the trial. Compound 2 was administered in addition to the previous treatment.
# All the patients underwent standard laboratory tests prior to commencement of Compound 2 therapy, 14 days after the beginning of the course and upon completion of the course. The tests included clinical blood analysis; general urine analysis; evaluation of creatinine, bilirubin, transaminase activity, blood sugar, cholesterol and β-lipoproteins, malonic dialdehyde, Schiff bases, zinc, iron, copper, plasma potassium and sodium, prothrombin and fibrinogen; and an ECG examination in dynamics.
# All the patients received conventional therapy, i.e. nitrates, anticoagulants and/or hypotensive agents as appropriate.
# Combination therapy included Compound 2 (1st group—32 patients) or Riboxin (2nd group—18 patients). The agents were administered at a dose of 200 mg three times per day.
# [2] = tested on: lesions of the gastric mucosa; assay: Gastric lesions induced by electrostimulation of immobilised rats; assay type: in vivo
# Experimental: The models used gastric ulcers induced by
# a) Electrostimulation of immobilised rats for 3 hours;
# The compounds were administered intraperitoneally at a dose of 20 mg/kg; in the cryogenic ulcer model compound 2 was administered either intraperitoneally (10 mg/kg) or orally (20 mg/kg twice daily, ie. a total of 40 mg/kg/day) and was compared to orally-administered gastrocepin (1 mg/kg twice daily, ie. a total of 2 mg/kg/day).
# [3] = 200 mg three times per day plus conventional therapy
# [4] = patients with repeated myocardial infarct
# [5] = Healing effect over the course of 3 days
# [6] = Protective effect, 30 minutes before the test
smiles,measurement,setting,value
"CC[n+]1cn(C)c(C(=O)NC)c1C(=O)NC.O=S(=O)([O-])c1ccccc1 [Compound 2, 1-methyl-3-ethyl-4,5-bis(N-methylcarbamoyl)-imidazolium benzenesulfonate]",Level of creatine phosphate (μM/g) in rat myocardium,"[1]; Oral 10 mg/kg, 3 days after stimulation",1.09 ± 0.1 µM/g
same,Level of creatine phosphate (μM/g) in rat myocardium,"[1]; Oral 10 mg/kg, Before stimulation",0.80 ± 0.07 µM/g
same,Level of creatine phosphate (μM/g) in rat myocardium,"[1]; intraperitoneal 10 mg/kg, 3 days after stimulation",0.95 ± 0.06 µM/g
same,Level of creatine phosphate (μM/g) in rat myocardium,"[1]; intraperitoneal 10 mg/kg, Before stimulation",0.92 ± 0.08 µM/g
same,Level of creatine phosphate (μM/g) in rat myocardium,"[1]; intraperitoneal 20 mg/kg, 3 days after stimulation",1.07 ± 0.04 µM/g
same,Level of creatine phosphate (μM/g) in rat myocardium,"[1]; intraperitoneal 20 mg/kg, Before stimulation",1.04 ± 0.15 µM/g
same,LD50,guinea pigs,more than 20000 mg/kg
same,cholesterol levels,myocardial infarction; [3],96.5%
same,level of prothrombin,myocardial infarction; [3],91.3%
same,ejection fraction,"myocardial infarction; 200 mg three times per day plus conventional therapy, 54.4±1.5% in the absence of the agent",60.0±0.5%
same,malonic dialdehyde,"myocardial infarction; 21st day, 1.3 before treatment, normal 1.21",1 nmol/mL
same,superoxide dismutase levels,"myocardial infarction; after therapy, 18-20 before treatment, norm 23",25 conventional units
same,level of Schiff bases,"myocardial infarction; after therapy, 75 before treatment, normal 60",40 conventional units
same,allergic reactions or side effects,"myocardial infarction; human, in vivo",did not develop any allergic reactions or side effects
same,cases in which cicatrisation took place one or two days earlier,myocardial infarction; [4],90%
same,time of cicatrisation on the average,myocardial infarction; [4],27 days
same,% reduction of degree of ulceration,[2]; [5],50%
same,Average number of lesions per animal,[2]; [5],1.7 ± 0.2
same,% reduction of degree of ulceration,[2]; [6],66%
same,% reduction of ulcerated area,[2]; [6],91%
same,Area of lesion,[2]; [6],2.8 ± 2.1
same,Average number of lesions per animal,"[2]; Protective effect, 30 minutes before the test, 20 mg/kg intraperitoneally",2.4 ± 0.8
